Test results reported in the NIST ThermoML archive (doi:10.1016/j.jct.2004.04.003).
Values joined by “and” are separate entries in the source; they are usually repeats but may differ in a detail not shown here. Equal values may be shown once. ± gives the expanded uncertainty stated by the source.

Assays:
[1] = Molar enthalpy of transition or fusion; details: Adiabatic calorimetry
[2] = molar heat capacity at saturation pressure; details: Vacuum adiabatic calorimetry

C1CCC(C2CCCC2)C1 [1,1'-bicyclopentyl]
Molar enthalpy of transition or fusion ([1]; Crystal 1): 3.202 ± 0.00335 kcal/mol
Molar enthalpy of transition or fusion ([1]; Crystal 2): 0.06142 ± 0.000478 kcal/mol
molar heat capacity ([2]; 10 K, Crystal 3): 2.73 ± 0.04 J/K/mol
molar heat capacity ([2]; 11.5 K, Crystal 3): 4.08 ± 0.04 J/K/mol
molar heat capacity ([2]; 11.8 K, Crystal 3): 4.35 ± 0.05 J/K/mol
molar heat capacity ([2]; 13.17 K, Crystal 3): 5.8 ± 0.06 J/K/mol
molar heat capacity ([2]; 13.37 K, Crystal 3): 6.03 ± 0.06 J/K/mol
molar heat capacity ([2]; 14.83 K, Crystal 3): 7.75 ± 0.07 J/K/mol
molar heat capacity ([2]; 14.99 K, Crystal 3): 7.95 ± 0.07 J/K/mol
molar heat capacity ([2]; 16.64 K, Crystal 3): 10.09 ± 0.07 J/K/mol
molar heat capacity ([2]; 16.69 K, Crystal 3): 10.19 ± 0.083 J/K/mol
molar heat capacity ([2]; 18.46 K, Crystal 3): 12.62 ± 0.091 J/K/mol
molar heat capacity ([2]; 18.63 K, Crystal 3): 12.87 ± 0.091 J/K/mol
molar heat capacity ([2]; 20 K, Crystal 3): 14.82 ± 0.1 J/K/mol
molar heat capacity ([2]; 20.51 K, Crystal 3): 15.56 ± 0.1 J/K/mol
molar heat capacity ([2]; 20.71 K, Crystal 3): 15.86 ± 0.1 J/K/mol
molar heat capacity ([2]; 22.72 K, Crystal 3): 18.82 ± 0.11 J/K/mol
molar heat capacity ([2]; 22.99 K, Crystal 3): 19.31 ± 0.11 J/K/mol
molar heat capacity ([2]; 25.1 K, Crystal 3): 22.6 ± 0.12 J/K/mol
molar heat capacity ([2]; 25.32 K, Crystal 3): 22.88 ± 0.12 J/K/mol
molar heat capacity ([2]; 27.67 K, Crystal 3): 26.42 ± 0.12 J/K/mol
molar heat capacity ([2]; 30 K, Crystal 3): 29.89 ± 0.11 J/K/mol
molar heat capacity ([2]; 30.51 K, Crystal 3): 30.65 ± 0.11 J/K/mol
molar heat capacity ([2]; 33.62 K, Crystal 3): 35.24 ± 0.12 J/K/mol
molar heat capacity ([2]; 37.09 K, Crystal 3): 40.13 ± 0.12 J/K/mol
molar heat capacity ([2]; 40 K, Crystal 3): 44.07 ± 0.13 J/K/mol
molar heat capacity ([2]; 40.84 K, Crystal 3): 45.17 ± 0.13 J/K/mol
molar heat capacity ([2]; 44.81 K, Crystal 3): 49.8 ± 0.14 J/K/mol
molar heat capacity ([2]; 49.26 K, Crystal 3): 55.04 ± 0.15 J/K/mol
molar heat capacity ([2]; 50 K, Crystal 3): 55.91 ± 0.15 J/K/mol
molar heat capacity ([2]; 54.23 K, Crystal 3): 60.6 ± 0.17 J/K/mol
molar heat capacity ([2]; 54.24 K, Crystal 3): 60.62 ± 0.17 J/K/mol
molar heat capacity ([2]; 59.45 K, Crystal 3): 65.6 ± 0.17 J/K/mol
molar heat capacity ([2]; 60 K, Crystal 3): 66.15 ± 0.17 J/K/mol
molar heat capacity ([2]; 65.02 K, Crystal 3): 70.77 ± 0.18 J/K/mol
molar heat capacity ([2]; 70 K, Crystal 3): 74.88 ± 0.19 J/K/mol
molar heat capacity ([2]; 71.12 K, Crystal 3): 75.75 ± 0.19 J/K/mol
molar heat capacity ([2]; 77.81 K, Crystal 3): 80.69 ± 0.2 J/K/mol
molar heat capacity ([2]; 80 K, Crystal 3): 82.21 ± 0.21 J/K/mol
molar heat capacity ([2]; 84.9 K, Crystal 3): 85.44 ± 0.21 J/K/mol
molar heat capacity ([2]; 90 K, Crystal 3): 88.7 ± 0.29 J/K/mol
molar heat capacity ([2]; 90.4 K, Crystal 3): 88.97 ± 0.29 J/K/mol
molar heat capacity ([2]; 92.15 K, Crystal 3): 90 ± 0.29 J/K/mol
molar heat capacity ([2]; 95.17 K, Crystal 3): 91.72 ± 0.29 J/K/mol
molar heat capacity ([2]; 97.64 K, Crystal 3): 93.21 ± 0.29 J/K/mol
molar heat capacity ([2]; 100 K, Crystal 3): 94.56 ± 0.29 J/K/mol
molar heat capacity ([2]; 102.4 K, Crystal 3): 95.85 ± 0.3 J/K/mol
molar heat capacity ([2]; 105.1 K, Crystal 3): 97.46 ± 0.3 J/K/mol
molar heat capacity ([2]; 110 K, Crystal 3): 100.28 ± 0.3 J/K/mol
molar heat capacity ([2]; 112.84 K, Crystal 3): 102.05 ± 0.3 J/K/mol
molar heat capacity ([2]; 116.54 K, Crystal 3): 104.26 ± 0.31 J/K/mol
molar heat capacity ([2]; 118.13 K, Crystal 3): 105.18 ± 0.31 J/K/mol
molar heat capacity ([2]; 118.17 K, Crystal 3): 105.56 ± 0.31 J/K/mol
molar heat capacity ([2]; 120 K, Crystal 3): 106.6 ± 0.31 J/K/mol
molar heat capacity ([2]; 120.99 K, Crystal 3): 107.39 ± 0.31 J/K/mol
molar heat capacity ([2]; 126.75 K, Crystal 3): 111.08 ± 0.31 J/K/mol
molar heat capacity ([2]; 128.4 K, Crystal 1): 115.78 ± 0.32 J/K/mol
molar heat capacity ([2]; 128.4 K, Crystal 3): 112.23 ± 0.32 J/K/mol
molar heat capacity ([2]; 130 K, Crystal 1): 116.49 ± 0.32 J/K/mol
molar heat capacity ([2]; 133.46 K, Crystal 2): 118.05 ± 0.32 J/K/mol
molar heat capacity ([2]; 133.78 K, Crystal 2): 118.67 ± 0.32 J/K/mol
molar heat capacity ([2]; 134.12 K, Crystal 2): 118.41 ± 0.32 J/K/mol
molar heat capacity ([2]; 135.2 K, Crystal 2): 118.41 ± 0.32 J/K/mol
molar heat capacity ([2]; 139.41 K, Crystal 2): 121.01 ± 0.32 J/K/mol
molar heat capacity ([2]; 140 K, Crystal 1): 121.32 ± 0.32 J/K/mol
molar heat capacity ([2]; 142.47 K, Crystal 2): 122.75 ± 0.32 J/K/mol
molar heat capacity ([2]; 143.12 K, Crystal 2): 122.93 ± 0.32 J/K/mol
molar heat capacity ([2]; 150 K, Crystal 1): 126.87 ± 0.32 J/K/mol
molar heat capacity ([2]; 151.25 K, Crystal 2): 127.64 ± 0.32 J/K/mol
molar heat capacity ([2]; 152.11 K, Crystal 2): 128.17 ± 0.33 J/K/mol
molar heat capacity ([2]; 160 K, Crystal 1): 133.12 ± 0.33 J/K/mol
molar heat capacity ([2]; 160.68 K, Crystal 2): 133.74 ± 0.34 J/K/mol
molar heat capacity ([2]; 160.78 K, Crystal 2): 133.46 ± 0.34 J/K/mol
molar heat capacity ([2]; 166.89 K, Crystal 2): 138.79 ± 0.34 J/K/mol
molar heat capacity ([2]; 170 K, Crystal 1): 140.08 ± 0.34 J/K/mol
molar heat capacity ([2]; 171.5 K, Crystal 1): 141.19 ± 0.34 J/K/mol and 136.32 ± 0.33 J/K/mol
molar heat capacity ([2]; 173.81 K, Crystal 1): 137.58 ± 0.34 J/K/mol
molar heat capacity ([2]; 178.13 K, Crystal 1): 139.77 ± 0.34 J/K/mol
molar heat capacity ([2]; 180 K, Crystal 1): 141.36 ± 0.34 J/K/mol
molar heat capacity ([2]; 181.67 K, Crystal 1): 142.75 ± 0.34 J/K/mol
molar heat capacity ([2]; 182.42 K, Crystal 1): 143.41 ± 0.34 J/K/mol
molar heat capacity ([2]; 186.12 K, Crystal 1): 145.42 ± 0.35 J/K/mol
molar heat capacity ([2]; 190 K, Crystal 1): 148.08 ± 0.35 J/K/mol
molar heat capacity ([2]; 190.41 K, Crystal 1): 148.06 ± 0.35 J/K/mol
molar heat capacity ([2]; 194.17 K, Crystal 1): 151.17 ± 0.35 J/K/mol
molar heat capacity ([2]; 200 K, Crystal 1): 155.66 ± 0.36 J/K/mol
